Where a name gives a salt, the structure may show the parent alone. Read-outs that look alike come from different tables or passages of the source.
What was measured:
[1] = tested on: male Wistar rats; experiment: ICSS thresholds after intra-ventral tegmental area LY314582; assay type: in vivo, rat
Description: All injections were administered bilaterally in a volume of 0.5 μl/side given over 66 sec through 17 mm injectors. The injectors were connected to calibrated polyethylene-10 tubing preloaded with drug solution and protruded 3 mm below the ends of the cannulas into the VTA. After infusion, the injectors were kept in place for an additional 60 sec to allow for drug diffusion. Injectors were then removed and replaced with 14 mm wire stylets, and the animals then placed directly into the ICSS testing apparatus. Injections were made using a Harvard microinfusion pump (Model 975).
After stable baseline ICSS responding was achieved (≦10% variation in threshold for 3 consecutive days), rats (n=15) with bilateral cannulas directed toward the VTA were allocated to two groups such that there were no differences in mean baseline reward thresholds or body weight between groups. […] Animals again were tested in the ICSS paradigm each day for seven days prior to drug treatment. […] There was a minimum 48 h interval between each injection, during which ICSS thresholds continued to be measured, to allow thresholds to return to baseline levels before further drug tests. At the conclusion of the experiment, all animals were anaesthetized and their brains removed and immediately placed on ice. The brains were cut in 50 μm sections, and placements of the injectors and the electrodes were examined (see FIG. 1 for histological verification of injection sites). Only those rats with injection tips located within the VTA were included in statistical analyses.

[2] = tested on: drug-naïve rats; conditions: previous studies (Harrison et al., 2002; Macey et al., 2001); cited from earlier work
[3] = tested on: male Wistar rats
Source text: (§1) Animals were trained to respond according to a modification of the discrete-trial current-threshold procedure of Kornetsky and Esposito (Fed Proc 38:2473-2476, 1979), which has been described in detail previously (Markou and Koob, 1992 Physiol Behav 51:111-119). Briefly, a trial was initiated by the delivery of a non-contingent electrical stimulus. […] The current intensity delivered was adjusted for each animal and typically ranged from 50 to 200 μA. […] After a variable inter-trial interval (7.5-12.5 sec, average of 10 sec), another trial was initiated with the delivery of a non-contingent electrical stimulus. […] Responding during the inter-trial interval delayed the onset of the next trial by 12.5 sec. Current levels were varied in alternating descending and ascending series. A set of three trials was presented for each current intensity. Current intensities were altered in 5 μA steps. In each testing session, four alternating descending-ascending series were presented. […] The overall threshold of the session was defined as the mean of the thresholds for the four individual series. Each testing session was ˜30 min in duration. The latency between the onset of the non-contingent stimulus and a positive response was recorded as the response latency. The response latency for each test session was defined as the mean response latency of all trials during which a positive response occurred. After establishment of stable ICSS reward thresholds, rats were tested in the ICSS procedure once daily except for the spontaneous nicotine withdrawal experiment when rats were tested at time-points according to the experimental design.
Systemic administration experiments. These experiments investigated whether nicotine withdrawal, as measured by elevations in ICSS thresholds, could be precipitated in nicotine-treated rats by systemic administration of an agonist at mGluII receptors (LY314582), an agonist at GABAB receptors (CGP44532), or antagonists at mGlu5 (MPEP), NMDA (MK-801) or AMPA/Kainate (NBQX) glutamate receptors. For each drug tested, rats were trained in the ICSS paradigm until stable baseline responding was achieved, defined as ≦10% variation in thresholds for 3 consecutive days and requiring approximately 14 days of daily testing. […] One group was then prepared with subcutaneous osmotic mini-pumps delivering vehicle and the second group with mini-pumps delivering 9 mg/kg/day nicotine hydrogen tartrate (3.16 mg/kg/day nicotine free base). There was a minimum seven-day interval after mini-pump implantation, during which ICSS reward thresholds continued to be measured daily, before the effect of any systemically administered drug on reward thresholds was evaluated.

[4] = tested on: Wistar rats; experiment: Nicotine self-administration under a fixed ratio schedule (LY341495, LY341495 and MPEP)
[5] = tested on: male Wistar rats; experiment: ICSS thresholds during spontaneous nicotine withdrawal; assay type: in vivo, rat; conditions: for ICSS reward thresholds: 1 mg/kg, 30 min before the 18 h time-point
Source text: as §1
Osmotic mini-pumps were surgically removed from nicotine-treated rats (n=15) (defined as rats having been prepared with mini-pumps delivering 3.16 mg/kg/day nicotine free-base for at least seven days) or corresponding control rats (n=17; rats prepared with vehicle-containing mini-pumps). All rats were then tested in the ICSS procedure at 12, 18, 24, 36, 48 and 72 hr after the removal of osmotic mini-pumps. These time points were chosen based on the time course of threshold elevations previously observed during spontaneous nicotine withdrawal after removal of nicotine-delivering osmotic mini-pumps (Harrison et al., 2001, Neuropsychopharmacology 25:55-71; K.L.). […] Thirty min before being tested at the 18 h time-point, one group of nicotine withdrawing and one group of control rats were injected with LY341495 (1 mg/kg); the remaining rats were injected with vehicle.

[6] = tested on: male Wistar rats; conditions: 5 mg/kg fluoxetine alone (Harrison et al. 2001); cited from earlier work
[7] = tested on: male Wistar rats; experiment: Brain stimulation reward (ICSS) under baseline conditions, paroxetine and p-MPPI; assay type: in vivo, rat
Description: Male Wistar rats (Charles River, Hollister, Calif.) (300-320 g at the start of the experiments) were housed in pairs in a temperature and humidity controlled environment with a 12 hr light/dark cycle. Food and water were available ad libitum. A different set of subjects was used for each experiment. All subjects were treated in accordance with the National Institutes of Health “Guide for the Care and Use of Laboratory Animals,” and the animal facilities and the experimental protocols were in accordance with the Association for the Assessment and Accreditation of Laboratory Animal Care. Most of the behavioral testing was conducted during the light phase of the subjects' light/dark cycle, unless otherwise dictated by the experimental design due to time-course assessment of behavioral parameters. Apparatus The experimental apparatus consisted of 16 Plexiglas chambers (30.5×30×17 cm) (Med Associates Inc., St. Albans, Vt.) encased in sound-attenuating boxes (San Diego Instruments, San Diego, Calif.). Each operant chamber consisted of a stainless steel grid floor and a metal wheel manipulandum located on one wall, which required a 0.2 N force to rotate it a quarter turn. Gold-contact swivel commutators and bipolar leads connected the animals in the stimulation circuit (Plastics One, Roanoke, Va.). Brain stimulation was administered by constant current stimulators (Stimtek 1200, San Diego Instruments, San Diego, Calif.). […] During a 2 sec period immediately following a positive response, further responses were recorded as extra responses but had no consequence. If no response occurred during the 7.5 sec limited hold period a negative response was recorded. […] Thus, during each session, four current-thresholds were recorded and the mean of these values was taken as the current-threshold for each subject for each test session. Response Latency: The latency between the onset of the non-contingent stimulus and a positive response was recorded as the response latency. […]

[8] = tested on: male Wistar rats; experiment: Reward deficits during amphetamine withdrawal (ICSS thresholds, response latencies, body weight); conditions: for response latencies during withdrawal: 36 hr after the final amphetamine or saline injection; for return to baseline reward threshold levels before the amphetamine-withdrawing non-drug-treated rats: acute treatment prior to the 36 hr test, paroxetine 1.25 mg/kg, p-MPPI 3 mg/kg; for body weight during amphetamine withdrawal: amphetamine-exposed rats; for reward thresholds: saline-exposed animals, paroxetine 1.25 mg/kg or p-MPPI 3 mg/kg
Description: Male Wistar rats (Charles River, Hollister, Calif.) (300-320 g at the start of the experiments) were housed in pairs in a temperature and humidity controlled environment with a 12 hr light/dark cycle. Food and water were available ad libitum. A different set of subjects was used for each experiment. All subjects were treated in accordance with the National Institutes of Health “Guide for the Care and Use of Laboratory Animals,” and the animal facilities and the experimental protocols were in accordance with the Association for the Assessment and Accreditation of Laboratory Animal Care. Most of the behavioral testing was conducted during the light phase of the subjects' light/dark cycle, unless otherwise dictated by the experimental design due to time-course assessment of behavioral parameters. Apparatus The experimental apparatus consisted of 16 Plexiglas chambers (30.5×30×17 cm) (Med Associates Inc., St. Albans, Vt.) encased in sound-attenuating boxes (San Diego Instruments, San Diego, Calif.). Each operant chamber consisted of a stainless steel grid floor and a metal wheel manipulandum located on one wall, which required a 0.2 N force to rotate it a quarter turn. Gold-contact swivel commutators and bipolar leads connected the animals in the stimulation circuit (Plastics One, Roanoke, Va.). Brain stimulation was administered by constant current stimulators (Stimtek 1200, San Diego Instruments, San Diego, Calif.). Surgical Procedure The rats were prepared with 11 mm stainless steel bipolar electrodes (Plastics One; diameter=0.25 mm) in the posterior lateral hypothalamus (AP −0.5 mm from bregma; L±1.7 mm; DV −8.3 mm from dura, with the incisor bar set at 5 mm above the interaural line; Pellegrino et al. 1979 under halothane anaesthesia (1-1.5% halothane/oxygen mixture). Subjects were allowed to recover for at least seven days before any behavioral testing. Half of the electrodes were positioned on the right hemisphere and the other half on the left hemisphere to counterbalance possible brain asymmetries. […] The subjects were initially trained to turn the wheel manipulandum on a fixed ratio 1 schedule of reinforcement. […] The current intensity delivered was adjusted for each animal and typically ranged from 100 to 200 μA. After successful familiarization with this procedure (2 sessions of 100 reinforcers in less than 20 minutes), the rats were gradually trained on a discrete-trial, current-threshold procedure. At the start of each trial rats received a non-contingent electrical stimulus. During the following 7.5 sec, the limited hold, if the subjects responded by turning the wheel manipulandum a quarter turn (positive response) they received a second, contingent stimulus identical to the previous non-contingent stimulus. During a 2 sec period immediately following a positive response, further responses were recorded as extra responses but had no consequence. If no response occurred during the 7.5 sec limited hold period a negative response was recorded. […] Stimulation intensities were varied according to the classical psychophysical method of limits. The subjects received four alternating series of ascending and descending current intensities starting with a descending series. Within each series the stimulus intensity was altered by 5 μA steps between each set of trials (three trials per set). After training in the above procedure, rats were tested until stable baseline thresholds had been achieved L+10% over a 5-day period). […] During the ascending series, the reverse situation defined the threshold. Thus, during each session, four current-thresholds were recorded and the mean of these values was taken as the current-threshold for each subject for each test session. Response Latency: The latency between the onset of the non-contingent stimulus and a positive response was recorded as the response latency. The response latency for each test session was defined as the mean response latency of all trials during which a positive response occurred. […]

[9] = tested on: rats; conditions: single high dose 120-300 mg/kg orally, rats (Ryan et al. 2001); cited from earlier work
[10] = Lemberger et al. 1985; Prakash and Foster 1999; cited from earlier work

NC1(C(=O)O)CCC2C(C(=O)O)C21 (racemic) [LY314582, 2-aminobicyclo(3.1.0)hexane-2,6-dicarboxylic acid]
ICSS response Latencies ([1]; after VTA administration, nicotine-treated or control rats): had no effect on response latencies | ICSS reward thresholds ([1]; bilateral microinfusion into the VTA, 10-100 ng/side): significantly elevated reward thresholds in nicotine-treated but not control rats | ICSS reward thresholds ([1]; intra-VTA 50 and 100 ng/side): sufficient to elevate reward thresholds in nicotine-treated rats without affecting thresholds in control rats | dose that elevated ICSS thresholds in drug-naïve rats [2]: ≥ 10 mg/kg | ICSS reward thresholds ([3]; 7.5 mg/kg i.p., nicotine-treated rats, p<0.01): elevated reward thresholds in nicotine-treated rats compared to vehicle treatment | ICSS reward thresholds ([3]; 2.5-7.5 mg/kg intraperitoneal, nicotine-treated and control rats): elevated ICSS reward thresholds in nicotine-treated but not control rats | ICSS response Latencies ([3]; LY314582 2.5-7.5 mg/kg i.p., any dose tested): had no effect on response latencies in nicotine-treated or control rats

N[C@](CC1c2ccccc2Oc2ccccc21)(C(=O)O)[C@H]1C[C@@H]1C(=O)O [LY341495, 2S-2-amino-2-(1S,2S-2-carboxycyclopropan-1-yl)-3-(xanth-9-yl)propionic acid]
nicotine responding ([4]; 0.1, 0.5, 3 and 5 mg/kg LY341495): significantly decreased nicotine responding | decrease of nicotine self-administration ([4]; LY341495 0.5 mg/kg): approximately 35% | nicotine self-administration ([4]; LY341495 0.5 mg/kg alone, p<0.05): significantly decreased nicotine self-administration | ICSS reward thresholds ([5]; control rats): without affecting thresholds in control rats | ICSS reward thresholds ([5]; nicotine-withdrawing rats, p<0.001): significantly attenuated the elevations in reward thresholds in nicotine-withdrawing rats | ICSS response Latencies ([5]; LY341495 1 mg/kg): had no effect on response latencies at any time-point after injection

CNCCC(Oc1ccc(C(F)(F)F)cc1)c1ccccc1 (stereo not drawn) [fluoxetine]
duration of amphetamine withdrawal reward deficits [6]: reduced the duration of the reward deficits

COc1ccccc1N1CCN(CCN(C(=O)c2ccc(I)cc2)c2ccccn2)CC1.Cl [p-MPPI]
reward thresholds ([7]; p-MPPI 1, 3, 10 mg/kg alone): had no effect on reward thresholds | response latencies ([7]; p-MPPI 1-10 mg/kg (Example 4.2)): had no effect on response latencies | response latencies during withdrawal [8]: had no effect on response latencies | return to baseline reward threshold levels before the amphetamine-withdrawing non-drug-treated rats [8]: 24 h | body weight during amphetamine withdrawal [8]: appeared to gain weight similarly to vehicle-treated rats | reward thresholds [8]: Neither paroxetine (FIG. 4A & 4D) nor p-MPPI (FIG. 20B and 20E) had an effect on thresholds of saline-exposed animals

Fc1ccc([C@@H]2CCNC[C@H]2COc2ccc3c(c2)OCO3)cc1 [paroxetine, Paroxetine hydrochloride]
body weight and food consumption [9]: produces a reduction in body weight and food consumption | brain reward thresholds ([7]; paroxetine 1.25-10 mg/kg, 120 min before test): had no statistically significant effect on thresholds | response latencies during withdrawal [8]: significantly slower than those of either vehicle or p-MPPI treated rats | return to baseline reward threshold levels before the amphetamine-withdrawing non-drug-treated rats [8]: 24 h | body weight during amphetamine withdrawal [8]: did not gain weight during withdrawal | reward thresholds [8]: Neither paroxetine (FIG. 4A & 4D) nor p-MPPI (FIG. 20B and 20E) had an effect on thresholds of saline-exposed animals | half-life [10]: approximately 24 hours
